In patent US11999699B2, “Substituted pyrazole amides” (GRUENENTHAL GMBH, priority 2021, dated 2024):

Target: T1, human NaV1.8 (Homo sapiens, UniProt Q9Y5Y9)
T1 construct: The following NaV1.8 recombinant cell line was used for recordings: HEK-NaV1.8 (NM 006514.1); expressed in transfected cells; host or cells: HEK (recombinant cell line HEK-NaV1.8)
Experiment: Electrophysiology: automated whole-cell voltage-clamp (patch clamp, Qube384) recordings of sodium currents in HEK-NaV1.8 cells
Format: cell-based
Conditions: potency data either taken from inactivated or resting state, read-out: Potency category (human NaV1.8 IC50)
Method: Electrophysiology: Voltage-Clamp Recordings
The following NaV1.8 recombinant cell line was used for recordings: HEK-NaV1.8 (NM 006514.1) with in (NM 018400.3).
Sodium currents were measured using the patch clamp technique in the whole-cell configuration using the Qube384 (Sophion A/S, Copenhagen, Denmark) automated voltage clamp platform. “Multi hole” plates were used for the cell line expressing NaV1.8 while “single hole” plates were used for the recombinant cell lines expressing the other subtypes. Appropriate filters (for minimum seal resistance and minimum current size) and series resistance compensation (for high quality sodium channel recordings) were applied. Data was collected at ambient room temperature.
The recording extracellular solution contained (in mM): NaCl 145 mM, KCl 4 mM, CaCl2 2 mM, MgCl2 1 mM, HEPES 10 mM, Glucose 10 mM, pH 7.4 (NaOH). The intracellular recording solution contained (in mM): CsF 120 mM, CsCl 20 mM, NaCl 10 mM, EGTA 10 mM, HEPES 10 mM, pH 7.2 (CsOH). Currents were recorded at 25 kHz sampling frequency and filtered at 5 kHz. Series resistance compensation was applied at 65%.
Vehicle (VEH) is the control condition where cells are exposed to 0.3% DMSO without compound. All runs include VEH controls being exposed to the same voltage protocols to assess non-compound related phenomena such as run down and then used to isolate compound dependent effects on currents.
To check for state-dependence inhibition, the following voltage-sequence was applied every 20 seconds:
From a resting membrane potential of −120 mV, the first test pulse (P1; 20 ms to −10 mV) was applied to check for channels in the Resting State followed by a brief recovery (20 ms to −120 mV), then holding the membrane voltage to V112 (4 seconds at voltage to obtain half the channel at Rest and half Inactivated) with a subsequent second test pulse (P2; 20 ms to −10 mV) to check for channels in the Inactivated State, followed by another brief recovery (20 ms to −120 mV) and a final third test pulse (P3; 20 ms to −10 mV) to check for recovered channels.
To check for frequency-dependent inhibition, a 10 Hz protocol and a 20 Hz protocol were applied; namely,
From a resting membrane potential of −120 mV, 40-pulses (10 ms to −10 mV) was applied at 10 Hz (at 100 ms between pulses) and then at 20 Hz (at 50 ms between pulses).
Each parameter was recorded (P1, P2, P3, P40 from 10 Hz and P40 from 20 Hz) during a control period (lasting 5 minutes) when establishing the baseline and during compound period (lasting ˜12 minutes) when test compound (or vehicle) was applied. For each parameter, the value at the end of the compound period was normalized to the vehicle baseline; as follows
To adjust for any variance in the Na^+ current signal during the compound period (owing to cumulative inactivation independent of compound or shifts in biophysics over time), a dedicated segment of the recording wells in each 384 plate were dedicated to having only vehicle exposure. These vehicle-only recordings were used to correct for any apparent “run-up” or “run-down” in the experiment.
The adjusted inhibition was calculated as follows: […]
Percent inhibition was determined and IC50 values were calculated using a 4 parameter logistic model within XLFit Software (IDBS, Boston MA):
[formula] where A and B are the maximal and minimum inhibition respectively, C is the IC50 concentration and D is the (Hill) slope.
The potency data was either taken from inactivated or resting state.

T1 sequence (Q9Y5Y9 whole entry): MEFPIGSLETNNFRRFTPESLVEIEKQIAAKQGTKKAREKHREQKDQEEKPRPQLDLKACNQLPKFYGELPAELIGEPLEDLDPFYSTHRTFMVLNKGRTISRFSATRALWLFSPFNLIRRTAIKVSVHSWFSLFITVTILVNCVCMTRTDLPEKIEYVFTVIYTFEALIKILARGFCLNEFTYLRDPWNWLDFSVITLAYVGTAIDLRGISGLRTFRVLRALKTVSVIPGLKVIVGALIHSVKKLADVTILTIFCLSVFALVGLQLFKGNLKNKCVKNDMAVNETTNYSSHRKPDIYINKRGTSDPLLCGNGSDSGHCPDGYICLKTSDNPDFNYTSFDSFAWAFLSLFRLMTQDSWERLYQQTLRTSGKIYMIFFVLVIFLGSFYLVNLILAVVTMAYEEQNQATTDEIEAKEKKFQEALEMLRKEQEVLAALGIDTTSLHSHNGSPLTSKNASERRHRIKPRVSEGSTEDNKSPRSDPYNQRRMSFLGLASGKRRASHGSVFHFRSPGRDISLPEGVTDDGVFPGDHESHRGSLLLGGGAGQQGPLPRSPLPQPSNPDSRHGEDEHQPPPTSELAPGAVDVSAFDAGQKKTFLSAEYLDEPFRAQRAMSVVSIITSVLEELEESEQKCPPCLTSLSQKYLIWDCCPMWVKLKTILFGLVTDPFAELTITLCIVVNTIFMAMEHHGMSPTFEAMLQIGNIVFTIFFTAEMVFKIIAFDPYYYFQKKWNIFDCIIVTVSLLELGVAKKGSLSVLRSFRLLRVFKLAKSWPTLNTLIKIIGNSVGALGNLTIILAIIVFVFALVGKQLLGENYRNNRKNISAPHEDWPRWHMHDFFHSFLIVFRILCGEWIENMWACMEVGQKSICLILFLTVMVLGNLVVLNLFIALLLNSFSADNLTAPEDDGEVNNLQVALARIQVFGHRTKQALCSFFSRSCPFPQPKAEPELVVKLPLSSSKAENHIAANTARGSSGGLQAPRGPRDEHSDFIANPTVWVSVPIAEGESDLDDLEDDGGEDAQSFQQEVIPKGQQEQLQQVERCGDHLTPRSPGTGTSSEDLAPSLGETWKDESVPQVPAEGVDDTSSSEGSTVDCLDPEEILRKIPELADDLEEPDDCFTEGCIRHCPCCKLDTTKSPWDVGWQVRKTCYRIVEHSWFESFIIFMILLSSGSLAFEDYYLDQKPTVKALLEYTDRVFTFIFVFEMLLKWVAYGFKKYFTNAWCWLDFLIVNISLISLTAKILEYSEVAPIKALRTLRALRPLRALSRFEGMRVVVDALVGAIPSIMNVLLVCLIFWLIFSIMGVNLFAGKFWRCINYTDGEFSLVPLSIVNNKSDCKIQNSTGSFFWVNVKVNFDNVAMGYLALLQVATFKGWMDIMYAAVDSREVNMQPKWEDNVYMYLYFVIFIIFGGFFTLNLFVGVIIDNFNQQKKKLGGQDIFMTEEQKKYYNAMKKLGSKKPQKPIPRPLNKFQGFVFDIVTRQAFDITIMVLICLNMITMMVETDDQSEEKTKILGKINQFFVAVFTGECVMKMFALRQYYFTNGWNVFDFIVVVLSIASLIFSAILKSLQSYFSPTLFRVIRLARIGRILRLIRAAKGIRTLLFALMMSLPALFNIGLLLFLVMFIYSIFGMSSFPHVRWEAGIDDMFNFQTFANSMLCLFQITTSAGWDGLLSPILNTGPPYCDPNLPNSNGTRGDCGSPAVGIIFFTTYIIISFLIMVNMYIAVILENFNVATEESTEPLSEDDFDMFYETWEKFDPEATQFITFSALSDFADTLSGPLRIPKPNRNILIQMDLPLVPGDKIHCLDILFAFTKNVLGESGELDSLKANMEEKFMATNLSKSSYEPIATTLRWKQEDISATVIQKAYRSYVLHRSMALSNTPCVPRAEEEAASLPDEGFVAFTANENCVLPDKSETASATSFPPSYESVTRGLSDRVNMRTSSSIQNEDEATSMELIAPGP
T1 sequence (Q9NY72 23-215 partner): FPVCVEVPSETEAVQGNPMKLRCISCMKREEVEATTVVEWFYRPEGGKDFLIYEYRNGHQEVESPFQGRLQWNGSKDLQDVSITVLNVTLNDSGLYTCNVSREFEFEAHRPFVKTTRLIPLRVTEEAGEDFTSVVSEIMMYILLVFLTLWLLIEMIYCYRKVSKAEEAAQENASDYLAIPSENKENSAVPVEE

IC50 [nM]	SMILES
≤ 100	NC(=O)c1cc(NC(=O)c2c(C(F)(F)F)c(C3CC3)nn2CC2CC(C(F)F)C2)ccn1 (single isomer, unassigned) [SC-221b, 4-(3-cyclopropyl-1-((3-(difluoromethyl)cyclobutyl)methyl)-4-(trifluoromethyl)-1H-pyrazole-5-carboxamido)picolinamide]
≤ 100	Cc1c(C(F)(F)F)nn(CC2CCC(F)(F)C2)c1C(=O)Nc1ccnc(S(N)(=O)=O)c1 (single isomer, unassigned) [SC-254a]
≤ 100	Cc1c(C(F)(F)F)nn(CC2CCC(F)(F)C2)c1C(=O)Nc1ccnc(S(N)(=O)=O)c1 (single isomer, unassigned) [SC-254b]
≤ 100	NC(=O)c1cc(NC(=O)c2c(C(F)(F)F)c(C3CC3)nn2CC2CCCCO2)ccn1 (single isomer, unassigned) [SC-258a]
≤ 100	NC(=O)c1cc(NC(=O)c2c(C(F)(F)F)c(C3CC3)nn2CC2CCCCO2)ccn1 (single isomer, unassigned) [SC-258b]
≤ 100	CS(=O)(=O)c1cc(NC(=O)c2c(C(F)(F)F)c(C3CC3)nn2CC2CCCCO2)ccn1 (single isomer, unassigned) [SC-259a]
≤ 100	CS(=O)(=O)c1cc(NC(=O)c2c(C(F)(F)F)c(C3CC3)nn2CC2CCCCO2)ccn1 (single isomer, unassigned) [SC-259b]
100 to 1000	COc1c(C(C)(F)F)nn(CC2CCC(F)(F)C2)c1C(=O)Nc1ccnc(C(N)=O)c1 (single isomer, unassigned) [SC-271a]
100 to 1000	COc1c(C(C)(F)F)nn(CC2CCC(F)(F)C2)c1C(=O)Nc1ccnc(C(N)=O)c1 (single isomer, unassigned) [SC-271b]
≤ 100	CS(=O)(=O)c1cc(NC(=O)c2c(C(F)(F)F)c(C3CC3)nn2CC2CCC(F)(F)C2)ccn1 (single isomer, unassigned) [SC-277a]
≤ 100	CS(=O)(=O)c1cc(NC(=O)c2c(C(F)(F)F)c(C3CC3)nn2CC2CCC(F)(F)C2)ccn1 (single isomer, unassigned) [SC-277b]
≤ 100	Cc1c(C(F)(F)C(F)(F)F)nn(CC2CCC2(F)F)c1C(=O)Nc1ccnc(C(N)=O)c1 (single isomer, unassigned) [SC-278a]
≤ 100	Cc1c(C(F)(F)C(F)(F)F)nn(CC2CCC2(F)F)c1C(=O)Nc1ccnc(C(N)=O)c1 (single isomer, unassigned) [SC-278b]
100 to 1000	NC(=O)c1cc(NC(=O)c2c(C(F)(F)F)c(C3CC3)nn2CC2CC2(F)F)ccn1 (single isomer, unassigned) [SC-279a]
100 to 1000	NC(=O)c1cc(NC(=O)c2c(C(F)(F)F)c(C3CC3)nn2CC2CC2(F)F)ccn1 (single isomer, unassigned) [SC-279b]
100 to 1000	COC1CC(Cn2nc(C3CC3)c(C(F)(F)F)c2C(=O)Nc2ccnc(C(N)=O)c2)C1 (single isomer, unassigned) [SC-281a]
100 to 1000	COC1CC(Cn2nc(C3CC3)c(C(F)(F)F)c2C(=O)Nc2ccnc(C(N)=O)c2)C1 (single isomer, unassigned) [SC-281b]
≤ 100	NC(=O)c1cc(NC(=O)c2c(C(F)(F)F)c(C3CC3)nn2C[C@@H]2CC[C@H](C(F)(F)F)O2)ccn1 (single isomer, unassigned) [SC-284a]
≤ 100	NC(=O)c1cc(NC(=O)c2c(C(F)(F)F)c(C3CC3)nn2C[C@@H]2CC[C@H](C(F)(F)F)O2)ccn1 (single isomer, unassigned) [SC-284b]
100 to 1000	C[C@@H]1CC[C@H](Cn2nc(C3CC3)c(C(F)(F)F)c2C(=O)Nc2ccnc(C(N)=O)c2)O1 (single isomer, unassigned) [SC-286a]

IC50 [nM]	SMILES
100 to 1000	C[C@@H]1CC[C@H](Cn2nc(C3CC3)c(C(F)(F)F)c2C(=O)Nc2ccnc(C(N)=O)c2)O1 (single isomer, unassigned) [SC-286b]
≤ 100	NC(=O)c1cc(NC(=O)c2c(C(F)(F)F)c(C3CC3)nn2CC2CC(F)(F)C2(F)F)ccn1 (single isomer, unassigned) [SC-291a]
≤ 100	NC(=O)c1cc(NC(=O)c2c(C(F)(F)F)c(C3CC3)nn2CC2CC(F)(F)C2(F)F)ccn1 (single isomer, unassigned) [SC-291b]
≤ 100	Cc1c(C(C)(F)F)nn(CC2CCC(F)(F)C2)c1C(=O)Nc1cccc(S(N)(=O)=O)c1 (single isomer, unassigned) [SC-296a]
≤ 100	Cc1c(C(C)(F)F)nn(C[C@H]2CCC(F)(F)C2)c1C(=O)Nc1cccc(S(N)(=O)=O)c1 (single isomer, unassigned) [SC-296b]
100 to 1000	Cc1c(C(C)(F)F)nn(CC2(C)CCCCO2)c1C(=O)Nc1ccnc(S(N)(=O)=O)c1 (single isomer, unassigned) [SC-312a]
100 to 1000	Cc1c(C(C)(F)F)nn(C[C@@]2(C)CCCCO2)c1C(=O)Nc1ccnc(S(N)(=O)=O)c1 (single isomer, unassigned) [SC-312b]
≤ 100	Cc1c(C(C)(F)F)nn(C[C@@H]2CC[C@H]2C(F)(F)F)c1C(=O)Nc1ccnc(C(N)=O)c1 (single isomer, unassigned) [SC-315a]
≤ 100	Cc1c(C(C)(F)F)nn(C[C@@H]2CC[C@H]2C(F)(F)F)c1C(=O)Nc1ccnc(C(N)=O)c1 (single isomer, unassigned) [SC-315b]
100 to 1000	Cc1c(C(C)(F)F)nn(C[C@]2(C)CCCO2)c1C(=O)Nc1ccnc(S(N)(=O)=O)c1 (single isomer, unassigned) [SC-319a]
1000 to 10000	Cc1c(C(C)(F)F)nn(CC2(C)CCCO2)c1C(=O)Nc1ccnc(S(N)(=O)=O)c1 (single isomer, unassigned) [SC-319b]
100 to 1000	Cc1c(C(C)(F)F)nn(CC2C[C@H]2C(F)F)c1C(=O)Nc1ccnc(S(C)(=O)=O)c1 (stereo in doubt) [SC-207, 3-(1,1-difluoroethyl)-1-((2-(difluoromethyl)cyclopropyl)methyl)-4-methyl-N-(2-(methylsulfonyl)pyridin-4-yl)-1H-pyrazole-5-carboxamide]
100 to 1000	CS(=O)(=O)c1cccc(NC(=O)c2cc(C(F)(F)F)nn2CC2CCCCC2)c1 [SC-01, 1-(cyclohexylmethyl)-N-(3-(methylsulfonyl)phenyl)-3-(trifluoromethyl)-1H-pyrazole-5-carboxamide]
100 to 1000	CS(=O)(=O)c1cccc(NC(=O)c2cc(C(F)(F)F)nn2CC2CCC(F)(F)CC2)c1 [SC-02, 2-[(4,4-difluorocyclohexyl)methyl]-N-(3-methylsulfonylphenyl)-5-(trifluoromethyl)pyrazole-3-carboxamide]
100 to 1000	CS(=O)(=O)c1cccc(NC(=O)c2cc(C(F)(F)F)nn2CC2CCCC2)c1 [SC-03, 2-(cyclopentylmethyl)-N-(3-methylsulfonylphenyl)-5-(trifluoromethyl)pyrazole-3-carboxamide]
1000 to 10000	CS(=O)(=O)c1cccc(NC(=O)c2cc(C(F)(F)F)nn2CC2CCOCC2)c1 [SC-04, N-(3-methylsulfonylphenyl)-2-(oxan-4-ylmethyl)-5-(trifluoromethyl)pyrazole-3-carboxamide]
100 to 1000	CS(=O)(=O)c1cccc(NC(=O)c2c(C(F)(F)F)cnn2CC2CCC(F)(F)CC2)c1 [SC-05, 2-[(4,4-difluorocyclohexyl)methyl]-N-(3-methylsulfonylphenyl)-4-(trifluoromethyl)pyrazole-3-carboxamide]
100 to 1000	Cc1nn(CC2CCCCC2)c(C(=O)Nc2cccc(S(C)(=O)=O)c2)c1C [SC-06, 2-(cyclohexylmethyl)-4,5-dimethyl-N-(3-methylsulfonylphenyl)pyrazole-3-carboxamide]
1000 to 10000	Cc1nn(CC2CCCCC2)c(C(=O)Nc2cc[nH]c(=O)c2)c1C [SC-07, 1-(cyclohexylmethyl)-3,4-dimethyl-N-(2-oxo-1,2-dihydropyridin-4-yl)-1H-pyrazole-5-carboxamide]
